In the test the target is T1, TXA2 receptors of human platelets (Homo sapiens, UniProt P21731).
T1 construct: Human platelets incubate in the presence of a single concentration; endogenous in cells; host or cells: human platelets
T1 sequence (P21731 1-343): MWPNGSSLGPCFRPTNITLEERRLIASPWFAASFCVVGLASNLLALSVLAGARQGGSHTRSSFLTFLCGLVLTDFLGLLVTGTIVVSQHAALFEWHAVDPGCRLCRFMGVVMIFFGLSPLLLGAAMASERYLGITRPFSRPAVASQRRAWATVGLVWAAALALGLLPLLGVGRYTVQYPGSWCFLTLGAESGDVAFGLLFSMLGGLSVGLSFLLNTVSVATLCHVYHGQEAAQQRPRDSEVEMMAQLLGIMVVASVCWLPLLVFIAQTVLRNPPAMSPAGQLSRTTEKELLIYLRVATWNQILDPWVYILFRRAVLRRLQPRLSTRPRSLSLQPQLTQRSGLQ
The test can be described thus: displacement of radioligand [^125 I]PTA-OH specifically bound to the TXA2 receptors of human platelets. The test is classed as binding. The following applies: for inhibition at 10 µM / inhibition at 0.1 µM: 0.5 h, 30 minutes at 37° C; for inhibition at 10 µM: 1E-5 M competing agent, read-out: % displacement, Concentration 1E-5 M; for inhibition at 0.1 µM: 1E-7 M competing agent, read-out: % displacement, Concentration 1E-7 M; for Ki: determined according to the formula of CHENG and PRUSOFF, read-out: Ki (inhibition constant). How it is done: The affinity of the products of the Examples described for thromboxane A2 receptors is evaluated by the technique of displacing a radioligand specifically bound to the TXA2 receptors of human platelets. […] The reaction is completed by the addition of a buffer, followed by rapid filtration through […] filters. […] The results are expressed, for the doses tested, as the percentage displacement of the radioligand specifically bound to the TXA2 receptors of human platelets.

This is an account of results in patent US5128359A, “Benzimidazole and azabenzimidazole derivatives which are thromboxane receptor antagonists, their methods of preparation” (Laboratoires UPSA, priority 1990, dated 1992).

The structures appear in SMILES notation.

What is called Ki is a dissociation constant, usually derived from enzyme kinetics or from competition with a known ligand. Consider `CC(C)(CC(=O)O)Cc1nc2cc(F)ccc2n1Cc1ccc(S(C)(=O)=O)cc1` [Example 97, 4-[1-(4-Methylsulfonylbenzyl)-5-fluorobenzimidazol-2-yl]-3,3-dimethylbutanoic acid], for which the inhibition at 10 µM is 100%, the inhibition at 0.1 µM worked out at 100% and the Ki is 0.037 µM.
As for `CC(C)(CC(=O)O)Cc1nc2cc(Cl)ccc2n1Cc1ccc(Cl)c(Cl)c1` [Example 101, 4-[1-(3,4-Dichlorobenzyl)-5-chlorobenzimidazol-2-yl]-3,3-dimethylbutanoic acid], the inhibition at 10 µM was found to be 92% and the inhibition at 0.1 µM worked out at 71%.
The matching figures for `CC(C)(CC(=O)O)Cc1nc2cc(F)ccc2n1Cc1ccc(Br)cc1F` [Example 105, 4-[1-(2-Fluoro-4-bromobenzyl)-5-fluorobenzimidazol-2-yl]-3,3-dimethylbutanoic acid]: 98% and 100%.
For `CC(C)(CC(=O)O)Cc1nc2cc(F)ccc2n1Cc1ccc(Br)cc1` [Example 109, 4-[1-(4-Bromobenzyl)-5-fluorobenzimidazol-2-yl]-3,3-dimethylbutanoic acid] the same measures were 92% and 95%.
As to `CSc1ccc(Cn2c(CC(C)(C)CC(=O)O)nc3cc(Cl)ccc32)cc1` [Example 117, 4-[1-(4-Methylthiobenzyl)-5-chlorobenzimidazol-2-yl]-3,3-dimethylbutanoic acid], the inhibition at 10 µM was 89%, the inhibition at 0.1 µM came to 87% and the Ki was 0.0058 µM.
For `C[S+]([O-])c1ccc(Cn2c(CC(C)(C)CC(=O)O)nc3cc(Cl)ccc32)cc1` (centres unmarked) [Example 118, 4-[1-(4-Methylsulfoxybenzyl)-5-chlorobenzimidazol-2-yl]-3,3-dimethylbutanoic acid], the inhibition at 10 µM was found to be 92% and the inhibition at 0.1 µM turned out to be 54%.
The matching figures for `CC(C)(CC(=O)O)Cc1nc2cc(Cl)ccc2n1Cc1ccc(S(C)(=O)=O)cc1` [Example 119, 4-[1-(4-Methylsulfonylbenzyl)-5-chlorobenzimidazol-2-yl]-3,3-dimethylbutanoic acid]: 82% and 61%.
`CC(C)(CC(=O)O)Cc1nc2cc(Cl)ccc2n1Cc1ccc(Cl)cc1F` [Example 123, 4-[1-(2-Fluoro-4-chlorobenzyl)-5-chlorobenzimidazol-2-yl]3,3-dimethylbutanoic acid]: the inhibition at 10 µM came out at 87% and the inhibition at 0.1 µM is 77%.
On to `CC(C)(CC(=O)O)Cc1nc2cc(Br)ccc2n1Cc1ccc(Cl)cc1` [Example 127, 4-[1 (4-Chlorobenzyl)-5-bromobenzimidazol-2-yl]-3,3-dimethylbutanoic acid], for which the inhibition at 10 µM is 67% and the inhibition at 0.1 µM was determined as 38%.
For the compound `COc1ccc(Cn2c(CC(C)(C)CC(=O)O)nc3cc(F)ccc32)cc1` [Example 131, 4-[1-(4-Methoxybenzyl)-5 fluorobenzimidazol-2-yl]-3,3-dimethylbutanoic acid], the inhibition at 10 µM was 100% and the inhibition at 0.1 µM was 79%.
Regarding `CC(C)(CC(=O)O)Cc1nc2cc(Cl)ccc2n1Cc1ccc(Br)cc1F` [Example 135, 4-[1-(2-Fluoro-4-bromobenzyl)-5-chlorobenzimidazol-2-yl]3,3-dimethylbutanoic acid], the inhibition at 10 µM stood at 95% and the inhibition at 0.1 µM was determined as 74%.
Take `CC(C)(CC(=O)O)Cc1nc2cc(Cl)ccc2n1Cc1ccc(Br)cc1` [Example 139, 4-[1 (4-Bromobenzyl)-5-chlorobenzimidazol-2-yl]-3,3-dimethylbutanoic acid]: the inhibition at 10 µM was determined as 100%, the inhibition at 0.1 µM is 98% and the Ki was found to be 0.013 µM.
Consider `CC(C)(CC(=O)O)Cc1nc2cc(Cl)ccc2n1Cc1ccc2ccccc2c1` [Example 143, 4-[1-(Naphth-2-ylmethyl)-5-chlorobenzimidazol-2-yl]-3,3-dimethylbutanoic acid], for which the inhibition at 10 µM amounted to 89% and the inhibition at 0.1 µM is 77%.
As for `CC(C)(CC(=O)O)Cc1nc2cc(F)ccc2n1Cc1ccc2ccccc2c1` [Example 147, 4-[1(Naphth-2-ylmethyl)-5-fluorobenzimidazol-2-yl]-3,3-dimethylbutanoic acid], the inhibition at 10 µM is 93% and the inhibition at 0.1 µM stood at 91%.
For `O=C(O)CC1(Cc2nc3cc(F)ccc3n2Cc2ccc(Cl)cc2)CC1` [Example 150, [1-[1-(4-Chlorobenzyl)-5-fluorobenzimidazol-2-yl]methylcycloprop-1-yl]acetic acid] the same measures were 98% and 80%.
Regarding `CC(C)(CCC(=O)O)Cc1nc2cc(F)ccc2n1Cc1ccc(Cl)cc1` [Example 158, 5-[1-(4-Chlorobenzyl)-5-fluorobenzimidazol-2-yl]-4,4-dimethylpentanoic acid], the inhibition at 10 µM is 87% and the inhibition at 0.1 µM was 56%.
